Where “and” joins values, the source holds several entries; their conditions need not be identical. Equal values may be shown once. Toxic doses and inconclusive results are not listed. The calls were made as follows: active = survival T/C of 150% or more; inactive = T/C below 125% in these data.
Test system: P388 leukemia ip, CD2F1 mice, survival T/C
Experiment: NCI In Vivo Anticancer Drug Screen. Data for tumor model P388 Leukemia (intraperitoneal) in CD2F1 (CDF1) mice
Conditions: endpoint: median survival time, higher = longer survival
Procedure, shortened: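 Mice carrying the transplanted tumor received test compound or vehicle. Survival was recorded in each group, and the value is the treated-group measurement divided by that of the vehicle-treated control group.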

[1] = dose: 12.5 mg/kg/injection, schedule: Q01DX005 (ip), vehicle: Klucel (hydroxypropylcellulose) (HPC)
[2] = dose: 25.0 mg/kg/injection, schedule: Q01DX005 (ip), vehicle: Klucel (hydroxypropylcellulose) (HPC)
[3] = dose: 50.0 mg/kg/injection, schedule: Q01DX005 (ip), vehicle: Klucel (hydroxypropylcellulose) (HPC)
[4] = dose: 100.0 mg/kg/injection, schedule: Q01DX001 (ip), vehicle: Klucel (hydroxypropylcellulose) (HPC)
[5] = dose: 200.0 mg/kg/injection, schedule: Q01DX001 (ip), vehicle: Klucel (hydroxypropylcellulose) (HPC)
[6] = dose: 400.0 mg/kg/injection, schedule: Q01DX001 (ip), vehicle: Klucel (hydroxypropylcellulose) (HPC)
[7] = dose: 50.0 mg/kg/injection, schedule: Q01DX009 (ip), vehicle: saline with Tween-80
[8] = dose: 100.0 mg/kg/injection, schedule: Q01DX009 (ip), vehicle: saline with Tween-80
[9] = dose: 60.0 mg/kg/injection, schedule: Q01DX005 (ip), vehicle: saline with Tween-80
[10] = dose: 120.0 mg/kg/injection, schedule: Q01DX005 (ip), vehicle: saline with Tween-80
[11] = dose: 240.0 mg/kg/injection, schedule: Q01DX005 (ip), vehicle: saline with Tween-80
[12] = dose: 100.0 mg/kg/injection, schedule: Q04DX003 (ip), vehicle: Klucel (hydroxypropylcellulose) (HPC)
[13] = dose: 200.0 mg/kg/injection, schedule: Q04DX003 (ip), vehicle: Klucel (hydroxypropylcellulose) (HPC)
[14] = dose: 50.0 mg/kg/injection, schedule: Q01DX009 (ip), vehicle: Klucel (hydroxypropylcellulose) (HPC)
[15] = dose: 100.0 mg/kg/injection, schedule: Q01DX009 (ip), vehicle: Klucel (hydroxypropylcellulose) (HPC)
[16] = dose: 200.0 mg/kg/injection, schedule: Q01DX009 (ip), vehicle: Klucel (hydroxypropylcellulose) (HPC)

Measured: T/C

NC1=NCc2c(sc3c2CCCC3)N1
inactive: [1] 104 % of control | [2] 104 % of control | [3] 98 % of control and 103 % of control

Clc1nc(Cl)nc(Nc2ccc(-c3cc4ccc(-c5ncc[nH]5)cc4[nH]3)cc2)n1
inactive: dose: 60.0 mg/kg/injection, schedule: Q01DX005 (ip), vehicle: Klucel (hydroxypropylcellulose) (HPC) 100 % of control | dose: 120.0 mg/kg/injection, schedule: Q01DX005 (ip), vehicle: Klucel (hydroxypropylcellulose) (HPC) 100 % of control | dose: 240.0 mg/kg/injection, schedule: Q01DX005 (ip), vehicle: Klucel (hydroxypropylcellulose) (HPC) 105 % of control

COc1ccccc1C1=[N+]([O-])C(C)(C)C(c2ccccc2)C1 (centres undefined)
inactive: dose: 100.0 mg/kg/injection, schedule: Q04DX002 (ip), vehicle: Klucel (hydroxypropylcellulose) (HPC) 104 % of control | dose: 200.0 mg/kg/injection, schedule: Q04DX002 (ip), vehicle: Klucel (hydroxypropylcellulose) (HPC) 102 % of control

COc1cccc(CN2CCCNCC2)c1
inactive: dose: 6.25 mg/kg/injection, schedule: Q01DX009 (ip), vehicle: water 93 % of control | dose: 12.5 mg/kg/injection, schedule: Q01DX009 (ip), vehicle: water 93 % of control | dose: 25.0 mg/kg/injection, schedule: Q01DX009 (ip), vehicle: water 97 % of control | dose: 50.0 mg/kg/injection, schedule: Q01DX009 (ip), vehicle: water 101 % of control

Nc1nc2ccccc2n1/N=C/c1ccccc1[N+](=O)[O-]
inactive: [4] 90 % of control | [5] 100 % of control | [6] 98 % of control

O=C1CCCCCC1c1ccccc1 (centres undefined)
inactive: dose: 100.0 mg/kg/injection, schedule: Q04DX003 (ip), vehicle: saline with Tween-80 104 % of control | dose: 200.0 mg/kg/injection, schedule: Q04DX003 (ip), vehicle: saline with Tween-80 104 % of control | dose: 400.0 mg/kg/injection, schedule: Q04DX003 (ip), vehicle: saline with Tween-80 109 % of control

O=S(=O)(CI)OCCCl
inactive: [3] 102 % of control | dose: 100.0 mg/kg/injection, schedule: Q01DX005 (ip), vehicle: Klucel (hydroxypropylcellulose) (HPC) 110 % of control

CC1CCC(O)C23OC4C(OC(C)(C)C4C12C)C3=O (centres undefined) (tested in a mixture with another compound)
inactive: dose: 50.0 mg/kg/injection, schedule: Q01DX009 (ip), vehicle: saline 96 % of control | dose: 100.0 mg/kg/injection, schedule: Q01DX009 (ip), vehicle: saline 89 % of control | dose: 200.0 mg/kg/injection, schedule: Q01DX009 (ip), vehicle: saline 94 % of control

COc1cc(CC#N)c(S(=O)O)cc1OC
inactive: [7] 116 % of control | [8] 109 % of control | dose: 200.0 mg/kg/injection, schedule: Q01DX009 (ip), vehicle: saline with Tween-80 114 % of control

C=C(Br)c1ccc2c(c1)OCO2
inactive: [9] 106 % of control | [10] 102 % of control | [11] 102 % of control

CC(C)(C)CC(C)(C)c1ccc(O)cc1O
inactive: dose: 12.5 mg/kg/injection, schedule: Q04DX003 (ip), vehicle: saline with Tween-80 110 % of control | dose: 25.0 mg/kg/injection, schedule: Q04DX003 (ip), vehicle: saline with Tween-80 105 % of control | dose: 50.0 mg/kg/injection, schedule: Q04DX003 (ip), vehicle: saline with Tween-80 120 % of control

CCC12CCCN1CCc1c([nH]c3ccccc13)C2=O (centres undefined)
inactive: dose: 100.0 mg/kg/injection, schedule: Q04DX002 (ip), vehicle: suspension in saline 105 % of control | dose: 200.0 mg/kg/injection, schedule: Q04DX002 (ip), vehicle: suspension in saline 99 % of control

CS(=O)(=O)OC1CC(Cl)CO1 (centres undefined)
inactive: [12] 100 % of control | [13] 100 % of control | dose: 400.0 mg/kg/injection, schedule: Q04DX003 (ip), vehicle: Klucel (hydroxypropylcellulose) (HPC) 103 % of control

CN(C)CC/C=C1/c2ccccc2Sc2ccc(Cl)cc21
inactive: dose: 6.25 mg/kg/injection, schedule: Q01DX005 (ip), vehicle: saline with Tween-80 104 % of control | dose: 12.5 mg/kg/injection, schedule: Q01DX005 (ip), vehicle: saline with Tween-80 111 % of control

O=C(CC1=NC2NN(c3ccccc3)C(=O)C2=C1CC(=O)c1ccccc1)c1ccccc1 (centres undefined)
inactive: dose: 60.0 mg/kg/injection, schedule: Q01DX005 (ip), vehicle: saline 100 % of control | dose: 120.0 mg/kg/injection, schedule: Q01DX005 (ip), vehicle: saline 107 % of control | dose: 240.0 mg/kg/injection, schedule: Q01DX005 (ip), vehicle: saline 110 % of control

NC(=NCCCC(NCc1ccccc1)C(=O)O)N[N+](=O)[O-] (centres undefined)
inactive: dose: 12.5 mg/kg/injection, schedule: Q01DX009 (ip), vehicle: Klucel (hydroxypropylcellulose) (HPC) 98 % of control | dose: 25.0 mg/kg/injection, schedule: Q01DX009 (ip), vehicle: Klucel (hydroxypropylcellulose) (HPC) 99 % of control | [14] 99 % of control and 100 % of control | [15] 99 % of control and 100 % of control | [16] 100 % of control and 96 % of control | dose: 400.0 mg/kg/injection, schedule: Q01DX009 (ip), vehicle: Klucel (hydroxypropylcellulose) (HPC) 94 % of control

O=Cc1c(-c2ccccc2)nc2sccn12
inactive: dose: 50.0 mg/kg/injection, schedule: Q04DX003 (ip), vehicle: Klucel (hydroxypropylcellulose) (HPC) 96 % of control | [4] 100 % of control | [12] 96 % of control | [5] 100 % of control | [13] 91 % of control | [6] 99 % of control

COc1ccc2c(c1OC)C[C@@H]1c3c(cc4c(c3-2)OCO4)CCN1C
inactive: dose: 6.25 mg/kg/injection, schedule: Q01DX005 (ip), vehicle: Klucel (hydroxypropylcellulose) (HPC) 117 % of control | [1] 105 % of control | [2] 96 % of control | [3] 92 % of control

Cc1ccc(S(=O)(=O)N/N=C/c2ccc(O)c(O)c2)cc1
inactive: dose: 12.5 mg/kg/injection, schedule: Q01DX009 (ip), vehicle: other 112 % of control | dose: 25.0 mg/kg/injection, schedule: Q01DX009 (ip), vehicle: other 112 % of control | dose: 50.0 mg/kg/injection, schedule: Q01DX009 (ip), vehicle: other 112 % of control | dose: 100.0 mg/kg/injection, schedule: Q01DX009 (ip), vehicle: other 111 % of control and 120 % of control | dose: 200.0 mg/kg/injection, schedule: Q01DX009 (ip), vehicle: other 112 % of control and 121 % of control | dose: 400.0 mg/kg/injection, schedule: Q01DX009 (ip), vehicle: other 122 % of control

COc1nc(N)nc(Cl)n1
inactive: dose: 12.5 mg/kg/injection, schedule: Q01DX009 (ip), vehicle: saline with Tween-80 105 % of control | dose: 25.0 mg/kg/injection, schedule: Q01DX009 (ip), vehicle: saline with Tween-80 107 % of control | [7] 101 % of control | [8] 98 % of control

COC(=O)c1cc2c(cc1C(=O)OC)C(=O)c1ccccc1C2=O
inactive: [9] 100 % of control | [10] 101 % of control | [11] 92 % of control

Cc1ccc(N2C(=O)CC3(CCCCC3)C2=O)c(C)c1
inactive: [14] 105 % of control | [15] 109 % of control | [16] 103 % of control
